Square brackets hold non-standard residues; d marks the D form. Side chains are listed from the residue outwards. Peptide text beside a SMILES is read from it. * marks the point of attachment. NMeY = CN[C@@H](Cc1ccc(O)cc1)C(=O)O; Palmitoyl = CCCCCCCCCCCCCCCC(=O)*; αMeF = C[C@](N)(Cc1ccccc1)C(=O)O; Iva = CC[C@](C)(N)C(=O)O; Aib = CC(C)(N)C(=O)O
Key:
Male ob/ob mice = assay: Repeated dosing study in ob/ob mice; type: in vivo, mouse; conditions: for ALT / AST / TC / TG: plasma, mean ± SD
Protocol: Male ob/ob mice (9 weeks old) were divided into the groups based on the data of body weight, food intake, and plasma parameters. Vehicle or P41 was subcutaneously administered once a day for 4 weeks. Body weight and food intake were monitored during the study. Compounds were dissolved in 10% DMSO/saline. After the study, blood was collected and plasma parameters were measured. At day 29, the animals were sacrificed.
Plasma glucose, triglyceride (TG), total cholesterol (TC), aspartate aminotransferase (AST), and alanine aminotransferase (ALT) were analyzed by Autoanalyzer 7180 (Hitachi High-Technologies Corporation, Japan). Blood glycated hemoglobin (GHb) was measured with the automated GHb analyzers (HLC-723G8, Tosoh, Tokyo, Japan). Liver triglyceride content was measured as follows: a piece of tissue was homogenized in saline and lipid was extracted by the addition of hexane:isopropanol (3:2) solution. The lipid phase was collected, dried and then dissolved in isopropanol. The concentration of triglyceride was measured by Triglyceride E-test (Wako Pure Chemical Industries, Ltd, Japan) and triglyceride content per g liver was calculated. Plasma insulin was measured with ELISA Assay kit (Shibayagi Co. Ltd., Japan).

male C57BL/6J mouse = assay: Evaluation of feeding suppressive action in mice; type: in vivo; conditions: 30 nmol/kg s.c. once a day for 3 days; 3-days cumulative food consumption vs solvent control
Procedure, shortened: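 Male C57BL/6J mice, 8-9 weeks, ad libitum fed, given compound (30 or 100 nmol/2 mL in 10% DMSO saline) s.c. at 2 mL/kg once daily for 3 days. Cumulative 3-day food consumption measured by weighing; suppression rate (%) calculated relative to vehicle controls.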

Male KKA^y mice = assay: Repeated administration in KKA^y mice; type: in vivo, mouse; conditions: for ALT / AST / TC / TG: plasma, mean ± SD
Protocol: Male KKA^y mice (10 weeks old) were divided into the groups based on the data of body weight, food intake, glycated hemoglobin (GHb), and plasma parameters. P41 was subcutaneously administered once a day for 4 weeks. Compounds were dissolved in 10% DMSO/saline. Body weight and food intake were monitored during the study. After the study, blood was collected and GHb and plasma parameters were measured. The animals were sacrificed, and the liver and the adipose tissues were dissected and weighed. Lipid was extracted from a piece of liver tissue and liver triglyceride (TG) content was measured.
Plasma glucose and TG were measured by Autoanalyzer 7180 (Hitachi High-Technologies Corporation, Japan). Blood GHb was measured with the automated GHb analyzers (HLC-723G8, Tosoh, Tokyo, Japan). Plasma insulin was measured with ELISA Assay kit (Shibayagi Co. Ltd., Japan). Liver TG content was measured as follows: a piece of tissue was homogenized in saline and lipid was extracted by the addition of hexane:isopropanol (3:2) solution. The lipid phase was collected, dried and then dissolved in isopropanol. The concentration of TG was measured by Triglyceride E-test (Wako Pure Chemical Industries) and TG content per g liver was calculated.

[1] = 10, 30 and 100 nmol/kg s.c. once a day for 4 weeks
[2] = 10 nmol/kg s.c. once a day for 4 weeks
[3] = 30 nmol/kg s.c. once a day for 4 weeks
[4] = 100 nmol/kg s.c. once a day for 4 weeks

Q: Which results are given for `CCCCCCCCCCCCCCCC(=O)NCC(=O)NCC(=O)NCC(=O)NCC(=O)NCCCC[C@H](NC(=O)[C@H](CC(=O)O)NC(=O)[C@H](CO)NC(=O)[C@@H](NC(=O)[C@](C)(Cc1ccccc1)NC(=O)[C@@H](NC(=O)CNC(=O)[C@H](CCC(=O)O)NC(=O)C(C)(C)NC(=O)[C@H](Cc1ccc(O)cc1)NC)[C@@H](C)O)[C@@H](C)O)C(=O)N[C@@H](CO)C(=O)N[C@H](C(=O)NC(C)(C)C(=O)N[C@@H](CC(C)C)C(=O)N[C@@H](CCC(=O)O)C(=O)N[C@@H](CCCCN)C(=O)N[C@@H](CCC(N)=O)C(=O)N[C@@H](CCCNC(=N)N)C(=O)N[C@@H](CCC(N)=O)C(=O)N[C@@](C)(CC)C(=O)N[C@@H](CCC(=O)O)C(=O)N[C@@H](Cc1ccccc1)C(=O)N[C@H](C(=O)N[C@@H](CCCNC(=N)N)C(=O)N[C@@H](Cc1c[nH]cn1)C(=O)N[C@@H](CC(C)C)C(=O)N[C@@H](CC(C)C)C(=O)N[C@@H](CC(N)=O)C(=O)N[C@@H](CCCCN)C(=O)NC(C)(C)C(=O)N[C@H](C(=O)N[C@@H](CCCNC(=N)N)C(=O)N[C@@H](CCC(N)=O)C(=O)N[C@@H](CCCNC(=N)N)C(=O)N[C@@H](Cc1ccc(O)cc1)C(N)=O)[C@@H](C)O)C(C)C)[C@@H](C)CC` [Example 41] (H-[NMeY][Aib]EGT[αMeF]TSDK([Gly-Gly-Gly-Gly-Palmitoyl])SI[Aib]LEKQRQ[Iva]EFVRHLLNK[Aib]TRQRY-NH2)?
A: GHb (Male ob/ob mice; [1]): significant decrease; body weight and cumulative food intake (Male ob/ob mice; [1]): dose-dependent body weight and cumulative food intake reduction; plasma glucose levels (Male ob/ob mice; [1]): significant decrease; plasma insulin levels (Male ob/ob mice; [1]): Dose-dependent decrease; liver and mesenteric, epididymal, and inguinal adipose tissue weight, and liver TG content (Male ob/ob mice; 10, 30 and 100 nmol/kg s.c. once a day for 4 weeks, dose-dependent): decreased; ALT (Male ob/ob mice; [2]): 50.6 ± 23.8 U/L; AST (Male ob/ob mice; [2]): 82.3 ± 25.0 U/L; TC (Male ob/ob mice; [2]): 137.0 ± 12.7 mg/dL; TG (Male ob/ob mice; [2]): 52.4 ± 13.0 mg/dL; ALT (Male ob/ob mice; [3]): 38.3 ± 9.3 U/L; AST (Male ob/ob mice; [3]): 83.5 ± 21.5 U/L; TG (Male ob/ob mice; [3]): 51.6 ± 14.2 mg/dL; ALT (Male ob/ob mice; [4]): 41.6 ± 10.1 U/L; AST (Male ob/ob mice; [4]): 77.7 ± 13.1 U/L; TC (Male ob/ob mice; [4]): 136.8 ± 6.1 mg/dL; TG (Male ob/ob mice; [4]): 46.9 ± 12.9 mg/dL; Rate of feeding suppression (%) (male C57BL/6J mouse): −52.1%; decrease in body weight compared with vehicle group (Male KKA^y mice; [2]): 4.2%; decrease in body weight compared with vehicle group (Male KKA^y mice; [3]): 9.8%; decrease in body weight compared with vehicle group (Male KKA^y mice; [4]): 30.1%; GHb, PG and plasma insulin levels (Male KKA^y mice; [1]): dose-dependent and significant decrease; liver tissue weight (Male KKA^y mice; [1]): Comparable reduction; ALT (Male KKA^y mice; [2]): 31.3 ± 9.7 U/L; AST (Male KKA^y mice; [2]): 53.4 ± 11.9 U/L; TC (Male KKA^y mice; [2]): 139.3 ± 19.0 mg/dL; TG (Male KKA^y mice; [2]): 357.1 ± 76.9 mg/dL; ALT (Male KKA^y mice; [3]): 24.9 ± 2.1 U/L; AST (Male KKA^y mice; [3]): 48.9 ± 8.6 U/L; TC (Male KKA^y mice; [3]): 155.9 ± 20.1 mg/dL; TG (Male KKA^y mice; [3]): 210.1 ± 53.3 mg/dL; ALT (Male KKA^y mice; [4]): 21.7 ± 7.6 U/L; AST (Male KKA^y mice; [4]): 52.6 ± 7.3 U/L; TC (Male KKA^y mice; [4]): 131.4 ± 14.0 mg/dL; TG (Male KKA^y mice; [4]): 138.1 ± 54.4 mg/dL

From patent US10501516B2, “Peptide compound” (TAKEDA PHARMACEUTICAL COMPANY LIMITED, priority 2016, dated 2019)
